{
  "source": "patent US20090259275A1",
  "about": "“METHODS OF TREATING BRAIN DAMAGES” (priority 2008, published 2009)",
  "key": {"PAK1 phosphorylation": {"test_system": "PAK1 phosphorylation", "assay": "Immunoblot of PAK1 phosphorylation (serine 423) in EF-exposed explants", "type": "cell-based, rat", "settings": "DAPV; EF 250 mV/mm for 60 min", "excerpt": "(§1) The methods for immunocytochemistry and coimmunoprecipitation have been described in detail in Ning et al., “Dual neuroprotective signaling mediated by downregulating two distinct phosphatase activities of PTEN,” J. Neurosci., 24, 4052-60, (2004); and Liu et al., “Ischemic insults direct glutamate receptor subunit 2-lacking AMPA receptors to synaptic sites,” J. Neurosci., 26, 5309-19 (2006), both of which are incorporated herein by reference. For immunocytochemical labeling, the guinea-pig anti-DCX (obtained from Santa Cruz Biotechnology, Santa Cruz, Calif.), mouse anti-nestin (obtained from Chemicon, Billerica, Mass.), rabbit anti-NR1 (obtained from Chemicon), and rabbit anti-NR2B (obtained from Novas Biologicals, Littleton, Colo.) primary antibodies were used. Secondary antibodies consisted of Alex Fluor 488 and 596 were purchased from Molecular Probes, Eugene, Oreg. Imaging was performed with a Zeiss LSM 510 META confocal microscope and image processing was performed with Image J software (obtained from NIH). For coimmunoprecipitation assay, rabbit anti-TIAM1 (obtained from Santa Cruz), rabbit anti-NR2B (obtained from Novus Biologicals), rabbit anti-phosphorylated PAK1 at serine 423 (obtained from Santa Cruz) and mouse anti-actin (obtained from Chemicon) were used. […]"}, "[1]": {"test_system": "association between actin and TIAM1", "assay": "Coimmunoprecipitation of actin with TIAM1 in EF-exposed explants", "type": "cell-based, rat", "settings": "DAPV", "excerpt": "as §1"}, "[2]": {"test_system": "NSPC migration toward cathode", "assay": "EF-directed NSPC migration in LGE explant cultures", "type": "cell-based, rat", "settings": "DAPV 10 μM, EF 30 mV/mm for 10 hours", "experimental": "Explants (100-300 μm in diameter) were selected for observation. For the electric field (EF) application, agar-salt bridges were used to connect silver/silver chloride electrodes in beakers containing Steinberg's solution to pools of excess culture medium at either side of the chamber. The electric field strengths were measured directly at the beginning and end of the observation period. For time-lapse observation, HEPES acid (25 mM) was added to the culture medium to adjust pH to 7.4. Time-lapse imaging was performed with an inverted microscope (Zeiss Axiovert 200M, obtained from Zeiss, Oberkochen, Germany) that was used to record digitally the migration of NSPCs for 3 hours. […] At the end of exposure period explants were fixed in 4% paraformaldehyde and then digitally photographed for quantification. […] To quantify velocity and directedness of cell motion, the cell centroid was calculated with Image J software (obtained from NIH). […] The directedness of motion was expressed as a function of cosine. It was calculated by defining movements in the X-plane towards the cathode (or mock-cathode) as negative. […] For quantification of long-term EF-exposed cells, the symmetry was expressed as a function of the distribution of cells around the explant. Total cell numbers in the cathode and anode facing quadrants were calculated. […]"}, "[3]": {"test_system": "association of p-PAK1 with TIAM1", "assay": "Coimmunoprecipitation of p-PAK1 with TIAM1 in EF-exposed LGE explants", "type": "cell-based, rat", "settings": "DAPV", "excerpt": "as §1"}, "[4]": {"biological_target": "T1, NMDAR association with TIAM1 (Rattus norvegicus, UniProt Q00960)", "T1 construct": "from tissue; host or cells: rat (Wistar) E17-18 lateral ganglionic eminence explant cultures", "T1 sequence (Q00960 27-1482, other chains not shown)": "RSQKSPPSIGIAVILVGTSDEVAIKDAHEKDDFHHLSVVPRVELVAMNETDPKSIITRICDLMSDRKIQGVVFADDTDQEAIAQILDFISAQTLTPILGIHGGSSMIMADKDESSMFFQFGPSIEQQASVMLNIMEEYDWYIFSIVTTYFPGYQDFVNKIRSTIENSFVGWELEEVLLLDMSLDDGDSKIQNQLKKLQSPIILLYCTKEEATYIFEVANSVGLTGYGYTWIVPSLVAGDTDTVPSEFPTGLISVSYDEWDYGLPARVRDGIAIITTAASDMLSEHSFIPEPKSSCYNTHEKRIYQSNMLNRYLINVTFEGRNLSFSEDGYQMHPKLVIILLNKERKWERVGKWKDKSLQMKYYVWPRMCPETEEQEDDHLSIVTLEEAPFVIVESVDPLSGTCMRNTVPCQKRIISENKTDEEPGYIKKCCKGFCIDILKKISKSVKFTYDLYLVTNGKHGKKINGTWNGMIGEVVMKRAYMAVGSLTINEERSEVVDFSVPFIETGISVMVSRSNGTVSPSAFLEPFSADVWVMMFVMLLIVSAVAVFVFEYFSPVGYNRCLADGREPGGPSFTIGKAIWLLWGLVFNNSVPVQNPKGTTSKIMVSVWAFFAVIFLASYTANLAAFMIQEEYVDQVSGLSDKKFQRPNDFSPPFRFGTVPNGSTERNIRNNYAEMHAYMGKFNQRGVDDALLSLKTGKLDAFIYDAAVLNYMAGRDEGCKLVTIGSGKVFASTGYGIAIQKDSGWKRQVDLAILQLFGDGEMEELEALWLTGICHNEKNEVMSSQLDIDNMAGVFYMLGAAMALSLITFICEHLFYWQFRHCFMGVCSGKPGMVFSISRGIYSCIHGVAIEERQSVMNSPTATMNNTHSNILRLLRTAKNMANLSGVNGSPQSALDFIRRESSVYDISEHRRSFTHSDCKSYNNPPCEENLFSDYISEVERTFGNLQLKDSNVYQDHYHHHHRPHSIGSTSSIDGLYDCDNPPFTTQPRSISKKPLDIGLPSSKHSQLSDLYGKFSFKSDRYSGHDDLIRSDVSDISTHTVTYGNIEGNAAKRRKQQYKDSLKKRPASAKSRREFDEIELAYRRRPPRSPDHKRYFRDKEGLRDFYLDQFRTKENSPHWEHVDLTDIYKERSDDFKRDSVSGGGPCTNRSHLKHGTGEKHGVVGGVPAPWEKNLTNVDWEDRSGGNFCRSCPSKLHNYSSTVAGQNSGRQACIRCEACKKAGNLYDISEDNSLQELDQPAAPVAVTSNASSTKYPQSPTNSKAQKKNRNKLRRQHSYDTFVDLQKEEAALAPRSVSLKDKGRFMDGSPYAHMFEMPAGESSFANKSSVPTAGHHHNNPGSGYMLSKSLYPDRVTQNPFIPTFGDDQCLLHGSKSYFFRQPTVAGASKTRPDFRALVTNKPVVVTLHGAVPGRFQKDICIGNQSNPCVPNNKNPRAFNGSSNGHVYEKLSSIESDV", "assay": "Coimmunoprecipitation of NMDAR (NR2B) with TIAM1 in EF-exposed LGE explants", "type": "cell-based", "settings": "DAPV 10 μM, EF 250 mV/mm for 60 minutes", "excerpt": "The methods for immunocytochemistry and coimmunoprecipitation have been described in detail in Ning et al., “Dual neuroprotective signaling mediated by downregulating two distinct phosphatase activities of PTEN,” J. Neurosci., 24, 4052-60, (2004); and Liu et al., “Ischemic insults direct glutamate receptor subunit 2-lacking AMPA receptors to synaptic sites,” J. Neurosci., 26, 5309-19 (2006), both of which are incorporated herein by reference. For immunocytochemical labeling, the guinea-pig anti-DCX (obtained from Santa Cruz Biotechnology, Santa Cruz, Calif.), mouse anti-nestin (obtained from Chemicon, Billerica, Mass.), rabbit anti-NR1 (obtained from Chemicon), and rabbit anti-NR2B (obtained from Novas Biologicals, Littleton, Colo.) primary antibodies were used. Secondary antibodies consisted of Alex Fluor 488 and 596 were purchased from Molecular Probes, Eugene, Oreg. Imaging was performed with a Zeiss LSM 510 META confocal microscope and image processing was performed with Image J software (obtained from NIH). For coimmunoprecipitation assay, rabbit anti-TIAM1 (obtained from Santa Cruz), rabbit anti-NR2B (obtained from Novus Biologicals), rabbit anti-phosphorylated PAK1 at serine 423 (obtained from Santa Cruz) and mouse anti-actin (obtained from Chemicon) were used.\nRearrangement of the actin cytoskeletal network is an essential process in neural migration. […]"}},
  "note": "“Also recorded” adds a separate entry of the source.",
  "data": [
    {"molecule": "N[C@H](CCCP(=O)(O)O)C(=O)O", "note": "[DAPV]", "values": [
      {"measurement": "EF-mediated increase of PAK1 phosphorylation", "setting": "PAK1 phosphorylation", "value": "significantly attenuated; also recorded: blocked"},
      {"measurement": "EF-induced increase of association between actin and TIAM1", "setting": "[1]", "value": "suppressed; also recorded: inhibited"},
      {"measurement": "NSPC migration toward cathode on the cathode side of explants", "setting": "[2]", "value": "significantly inhibited; also recorded: significantly attenuated"},
      {"measurement": "EF-enhanced association of p-PAK1 with TIAM1", "setting": "[3]", "value": "abolished"},
      {"measurement": "EF-induced increase of NMDAR (NR2B) association with TIAM1", "setting": "[4]", "value": "inhibited; also recorded: suppressed"}
    ]}
  ]
}
